Assay [1] has as its system MRSA 2 (methicillin-resistant S. aureus, clinical isolate). Description: agar diffusion method, inhibition zone. The assay is classed as cell-based, Staphylococcus aureus. To be noted: Staphylococcus aureus; MRSA 2; MH agar, 18 hours at 37° C.; per disk 10 μl crude extract, 50 μg macrolactin, 78 μg erythromycin, 30 μg vancomycin, 10 μg ampicillin. A general note: A growth-free zone around the sample is the usual read-out of agar diffusion tests.

Assay [2] relates to MRSA 3 (methicillin-resistant S. aureus, clinical isolate). Description: agar diffusion method, inhibition zone. The assay is classed as cell-based, Staphylococcus aureus. The note with it: Staphylococcus aureus; MRSA 3; MH agar, 18 hours at 37° C.; per disk 10 μl crude extract, 50 μg macrolactin, 78 μg erythromycin, 30 μg vancomycin, 10 μg ampicillin.
The subject of assay [3] is S. aureus # (own collection, methicillin-sensitive control strain). Nature of the assay: agar diffusion method, inhibition zone. The note with it: Staphylococcus aureus; S. aureus # own collection; MH agar, 18 hours at 37° C.; per disk 10 μl crude extract, 50 μg macrolactin, 78 μg erythromycin, 30 μg vancomycin, 10 μg ampicillin. Format: cell-based, Staphylococcus aureus.

In the next assay the test system is S. aureus DSMZ 1104. Nature of the assay: agar diffusion method, inhibition zone. The assay is classed as cell-based, Staphylococcus aureus. The note with it: Staphylococcus aureus, DSMZ1104; S. aureus DSMZ 1104; MH agar, 18 hours at 37° C.; per disk 10 μl crude extract, 50 μg macrolactin, 78 μg erythromycin, 30 μg vancomycin, 10 μg ampicillin.
Another assay has as its system E. faecalis ATCC 29212. Description: agar diffusion method, inhibition zone. Format: cell-based, Enterococcus faecalis. To be noted: Enterococcus faecalis, ATCC29212; E. faecalis ATCC 29212; MH agar, 18 hours at 37° C.; per disk 10 μl crude extract, 50 μg macrolactin, 78 μg erythromycin, 30 μg vancomycin, 10 μg ampicillin.
The subject of assay [4] is E. faecalis VRAS E305. Description: agar diffusion method, inhibition zone. Format: cell-based, Enterococcus faecalis. The note with it: E. faecalis VRAS E305, MH agar, 18 hours at 37° C., per disk 10 μl crude extract, 50 μg macrolactin, 78 μg erythromycin, 30 μg vancomycin, 10 μg ampicillin.
A further assay relates to E. faecium VRAR E315. Nature of the assay: agar diffusion method, inhibition zone. To be noted: Enterococcus faecium, VRARE315; E. faecium VRAR E315; MH agar, 18 hours at 37° C.; per disk 10 μl crude extract, 50 μg macrolactin, 78 μg erythromycin, 30 μg vancomycin, 10 μg ampicillin. The assay is classed as cell-based, Enterococcus faecium.
Another assay concerns MRSA 2. Description: MIC / MBC in liquid culture. Format: cell-based, Staphylococcus aureus. To be noted: MRSA 2.
Assay [5] has as its system E. faecalis VRAS E305. Description: MIC / MBC in liquid culture. Format: cell-based, Enterococcus faecalis. To be noted: E. faecalis VRAS E305.
Another assay concerns B. cepacia SCV 141. Description: MIC / MBC in liquid culture. The assay is classed as cell-based, Burkholderia cepacia. To be noted: Burkholderia cepacia. From the text:
(§1) 7-O-malonyl macrolactin A was not effective against some of the gram-negative bacteria tested by the inventors.

For the next assay, the system named is B. cepacia WT139. Nature of the assay: MIC / MBC in liquid culture. Format: cell-based, Burkholderia cepacia.
Text: as §1

Assay [6] deals with Candida parapsilosis DSM5784. Description: MIC / MBC in liquid culture. The assay is classed as cell-based. The note with it: Lodderomyces parapsilosis, read-out: MIC (minimal inhibitory concentration).
For assay [7], the system named is Staphylococcus aureus MRSA 3. Description: kinetics of growth at sub-MIC concentrations (FIG. 1B). The assay is classed as cell-based. The note with it: 1 or 4 μg/ml. The procedure:
Investigation of the bacteriostatic activity of 7-O-malonyl macrolactin A required testing the effects of sub-MIC concentrations. […] 24 hours after treatment, the titre of viable cells was reduced by a factor of 100 as compared to the control without 7-O-malonyl macrolactin A.
• FIG. 1A y-axis: Log CFU (Colony Forming Units) Cells/ml • x-axis: Time (HRS) • FIG. 1B y-axis: Log CFU (Colony Forming Units) Cells/ml • x-axis: Time (HRS) • FIG. 1C: y-axis: Log CFU (Colony Forming Units) Cells/ml • x-axis: Time (HRS) • FIG. 1D: y-axis: Log CFU (Colony Forming Units) Cells/ml • x-axis: Time (HRS) • FIG. 1E: y-axis: Log CFU (Colony Forming Units) Cells/ml • x-axis: Time (HRS) • FIG. 1F: y-axis: Log CFU (Colony Forming Units) Cells/ml • x-axis: Time (HRS) • FIG. 5A: y-axis: % Inhibition • x-axis Concentration μg/ml • FIG. 5B: y-axis: % Inhibition • x-axis Concentration μg/ml

The subject of a further assay is S. aureus MRSA 3. Description: electron microscopy of cell division (FIG. 2). Format: cell-based, Staphylococcus aureus. The note with it: 16 μg/ml, 4 hours shake culture. The procedure: FIGS. 2 a), b) and c) are electron microscope photographs of S. aureus MRSA 3 after 4 hours growth without antibiotic and d), e) and f) in the presence of 16 μg/ml 7-O-malonyl macrolactin A;
It is thought that 7-O-malonyl macrolactin A inhibits the division of bacterial cells, which interrupts the proliferation thereof.
7-O-malonyl macrolactin A influences cell division in MRSA 3, which is evident from the altered division planes. […] The large black arrowheads (FIGS. 2e) and f)) indicate the division planes, while the small black arrowheads indicate an asymmetrical initiation of cell division.

≈ marks a conversion by molar mass, not a printed value. Bounds are passed on as bounds.

For orientation: zone of inhibition means the size of the clear area around the sample on an inoculated plate. A lower zone of inhibition goes with little suppression of growth. `CC1CCC/C=C/C=C/C(O)CC(O)C/C=C\C=C\C(OC(=O)CC(=O)O)C/C=C/C=C\C(=O)O1` (centres unmarked) [7-O-malonyl macrolactin A]: the zone of inhibition at 50 µg/disc is 40 mm in assay [1]; 41 mm in assay [2]; 30 mm in assay [3]; 26 mm with S. aureus DSMZ 1104; 25 mm with E. faecalis ATCC 29212; 15 mm with E. faecalis VRAS E305 [4] (Enterococcus faecalis, VRASE305). This molecule displayed a zone of inhibition at 50 µg/disc in the assay on E. faecium VRAR E315 of 15 mm. Besides, the Inhibition zone entry in the assay with E. faecalis VRAS E305 [4] is “produced an inhibition zone”. Besides, the “MIC (minimal inhibitory concentration)” value against MRSA 2, in the assay with E. faecalis VRAS E305 [5] and against B. cepacia WT139 was over 128 µg/mL throughout. Moreover, the MBC in the assay with MRSA 2 (Staphylococcus aureus, pronounced inhibition of growth, read-out: MBC (minimal bacteriostatic or fungistatic concentration)) came to 4 µg/mL (≈ 8.19 µM); in the assay with E. faecalis VRAS E305 [5] (Enterococcus faecalis, VRASE305, read-out: MBC (minimal bacteriostatic or fungistatic concentration)) it was 0.06 µg/mL (≈ 0.123 µM); in the assay with B. cepacia SCV 141 (SCV141, read-out: MBC (minimal bacteriostatic or fungistatic concentration)) it was 32 µg/mL (≈ 65.5 µM). The MIC was over 128 µg/mL in the assay on MRSA 2 (Staphylococcus aureus, read-out: MIC (minimal inhibitory concentration)); over 128 µg/mL in the assay with E. faecalis VRAS E305 [5] (Enterococcus faecalis, VRASE305, read-out: MIC (minimal inhibitory concentration)); 128 µg/mL (≈ 262 µM) in the assay on B. cepacia SCV 141 (SCV141, read-out: MIC (minimal inhibitory concentration)); over 128 µg/mL in the assay with B. cepacia WT139 (Burkholderia cepacia, read-out: MIC (minimal inhibitory concentration)); 128 µg/mL (≈ 262 µM) in [6]. Moreover, in the assay with B. cepacia WT139, the “MBC (minimal bacteriostatic or fungistatic concentration)” value was “not observed”. Further, the “titre of viable cells reduced by a factor, compared to control” value in [7] (24 hours after treatment) was determined as 100. Also, the “effect on kinetics of growth” value in assay [7] (after 4 hours) was “almost completely inhibited”. Besides, in the assay with S. aureus MRSA 3, the “effect on cell division, electron microscope” value is “disrupted cell division”.

The values are drawn from patent publication US7977375B2, “Antibiotic and method of production thereof” (Helmholtz-Zentrum Für Infektionsforschung GmbH, priority 2004, dated 2011).
